This passage reports IC50 and Kd results from patent publication US12312337B2, “Compounds and methods for treating cancer” (ANTIDOTE IP HOLDINGS, LLC, priority 2019, dated 2025).

pIC50, pKd: −log10 of the molar value. Bounds are passed on as bounds.

One series concerns the target T1, human AhR (Homo sapiens, UniProt P35869).
T1 construct: INDIGO's Aryl Hydrocarbon Receptor (AhR) Reporter Cells include the luciferase reporter gene functionally linked to an AhR-responsive promoter
T1 sequence (P35869 11-848): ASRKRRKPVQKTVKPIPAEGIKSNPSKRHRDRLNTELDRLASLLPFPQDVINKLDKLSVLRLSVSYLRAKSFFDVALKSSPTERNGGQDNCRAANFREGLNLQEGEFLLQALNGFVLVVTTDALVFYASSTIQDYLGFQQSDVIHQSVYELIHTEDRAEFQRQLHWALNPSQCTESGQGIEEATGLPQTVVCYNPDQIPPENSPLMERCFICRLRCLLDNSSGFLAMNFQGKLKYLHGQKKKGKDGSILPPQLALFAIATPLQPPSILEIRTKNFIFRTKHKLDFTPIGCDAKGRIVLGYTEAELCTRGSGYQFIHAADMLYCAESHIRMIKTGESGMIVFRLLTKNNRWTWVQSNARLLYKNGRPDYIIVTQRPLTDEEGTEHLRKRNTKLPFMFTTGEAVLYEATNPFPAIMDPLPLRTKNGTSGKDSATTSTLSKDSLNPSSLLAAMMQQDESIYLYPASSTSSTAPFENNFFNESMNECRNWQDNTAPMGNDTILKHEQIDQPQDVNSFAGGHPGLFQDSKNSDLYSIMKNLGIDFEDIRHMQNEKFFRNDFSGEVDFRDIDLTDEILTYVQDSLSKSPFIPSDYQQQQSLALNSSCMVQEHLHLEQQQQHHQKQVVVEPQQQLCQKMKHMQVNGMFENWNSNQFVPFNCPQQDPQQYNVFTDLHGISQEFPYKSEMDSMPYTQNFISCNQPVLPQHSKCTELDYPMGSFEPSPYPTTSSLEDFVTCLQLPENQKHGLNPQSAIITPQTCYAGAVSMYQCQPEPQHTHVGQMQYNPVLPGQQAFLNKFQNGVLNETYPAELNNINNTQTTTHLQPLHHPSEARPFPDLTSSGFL
Kind of series: INDIGO AhR Reporter Assay (luciferase reporter cells, antagonist mode). The series is classed as cell-based. The note with it: antagonist mode with 50 nM of VAF347 (AhR agonist); 22-24 hours incubation; luciferase RLU. The text has this:
INDIGO's Aryl Hydrocarbon Receptor (AhR) Reporter Cells include the luciferase reporter gene functionally linked to an AhR-responsive promoter. Thus, quantifying changes in luciferase expression in the treated reporter cells provides a sensitive surrogate measure of the changes in AhR activity. The principle application of this reporter assay is in the screening of test samples to quantify any functional activity, either agonist or antagonist, that they may exert against human AhR. Reporter Cells incorporate the cDNA encoding beetle luciferase, a 62 kD protein originating from the North American firefly (Photinus pyralis). Luciferase catalyzes the mono-oxidation of D-luciferin in a Mg^2+-dependent reaction that consumes 02 and ATP as co-substrates, and yields as products oxyluciferin, AMP, PPi, CO2, and photon emission. Luminescence intensity of the reaction is quantified using a luminometer, and is reported in terms of Relative Light Units (RLU's). In brief, 200 μl of Reporter Cells was dispensed into wells of the assay plate and pre-incubated for 4-6 hours. Following the pre-incubation period, culture media were discarded and 200 µl/well of the prepared 1×-concentration treatment media were added. Following 22-24 hours of incubation, treatment media were discarded and Luciferase Detection Reagent was added. The intensity of light emission (in units of “Relative Light Units” (RLU)) from each assay well was quantified using a plate-reading luminometer. The assay was run as a competitive binding assay in the antagonist mode with 50 nM of VAF347, a known AhR agonist.
In Table 4, IC50 values are reported as A, B, C, or D. A represents an IC50 value of less than 100 nM. B represents an IC50 value of equal or greater than 100 nM and less than 500 nM. C represents an IC50 value of equal or greater than 500 nM and less than 1 μM. D represents an IC50 value of equal or greater than 1 μM.
As for `CN1CCN(S(=O)(=O)c2cc(NC(=O)c3ccc4c(c3)NC(=O)CO4)ccc2Cl)CC1` [Compound 172], the pIC50 is 6.00 to 6.30. The compound `CCN(CC)S(=O)(=O)c1cc(NC(=O)c2cc3cc(-c4ccc(F)cc4)cnc3s2)ccc1Cl` [Compound 141, N-[4-chloro-3-(N,N-diethylsulfamoyl)phenyl]-5-(4-fluorophenyl)-thieno[2,3-b]pyridine-2-carboxamide] had a pIC50 of 6.30 to 7.00. For the compound `Cc1cc(Cl)ccc1-c1cc(NC(=O)c2cc3ncccc3cc2Cl)n(C)n1` [Compound 58, 6-Chloro-N-(3-(4-chloro-2-methylphenyl)-1-methyl-1H-pyrazol-5-yl)quinoline-7-carboxamide], the pIC50 was 6.30 to 7.00. On the same count and under the same terms, the result for `Cc1ccccc1-c1cc(NC(=O)c2cc3ncccc3cc2Cl)n(C)n1` [Compound 31, 6-Chloro-N-[1-methyl-3-(2-methylphenyl)-1H-pyrazol-5-yl]quinoline-7-carboxamide] reads greater than 7.00; that for `Cn1nc(C(C)(C)C)cc1NC(=O)c1ccc2cc(-c3ccc(F)cc3)cnc2c1` [Compound 74, 3-(4-Fluorophenyl)-N-[1-methyl-3-(tert-butyl)-1H-pyrazol-5-yl]quinoline-7-carboxamide], 6.30 to 7.00. On the same count and under the same terms, then `CCN1CCN(c2ccc(NC(=O)c3ccc4cc(-c5ccccc5)cnc4c3)cc2F)CC1` [Compound 64, N-[4-(4-ethylpiperazin-1-yl)-3-fluorophenyl]-3-phenylquinoline-7-carboxamide], with less than 6.00. The compound `CC(C)Oc1ccnc2cc(C(=O)Nc3cc(C(F)(F)F)nn3C)ccc12` [Compound 99, 4-Isopropoxy-N-[1-methyl-3-(trifluoromethyl)-1H-pyrazol-5-yl]quinoline-7-carboxamide] showed a pIC50 of less than 6.00.

`Cc1ccc(C(F)(F)F)cc1-c1cc(NC(=O)c2cc3ncccc3cc2Cl)n(C)n1` [Compound 59] gave a pIC50 of 6.30 to 7.00. `Cc1ccccc1-c1cc(NC(=O)c2ccc3cc(-c4cccs4)cnc3c2)n(C)n1` [Compound 97, N-(1-methyl-3-(o-tolyl)-1H-pyrazol-5-yl)-3-(thiophen-2-yl)quinoline-7-carboxamide] had a pIC50 greater than 7.00. Same read-out and setting: the result for `Cn1nc(-c2cccc(C(F)(F)F)c2)cc1NC(=O)c1cc2ncccc2cc1Cl` [Compound 48, 6-Chloro-N-{1-methyl-3-[3-(trifluoromethyl)phenyl]-1H-pyrazol-5-yl}quinoline-7-carboxamide] reads 6.30 to 7.00. As for `Cn1nc(C(F)(F)F)cc1NC(=O)c1ccc2cc(-c3ccccc3F)cnc2c1` [Compound 54, 3-(2-Fluorophenyl)-N-[1-methyl-3-(trifluoromethyl)-1H-pyrazol-5-yl]quinoline-7-carboxamide], the negative-log IC50 (pIC50) is greater than 7.00. Take `Cn1nc(C(F)(F)F)cc1NC(=O)c1ccc2cc(-c3cccs3)cnc2c1` [Compound 73, N-[1-Methyl-3-(trifluoromethyl)-1H-pyrazol-5-yl]-3-(thiophen-2-yl)quinoline-7-carboxamide]: the pIC50 is greater than 7.00. In turn, `Cc1ccccc1/N=N/c1ccc(NC(=O)c2ccnn2C)c(C)c1` [CH223191, reference compound] had a pIC50 of 6.30 to 7.00.

The test system of the next series is AhR.
Assay: not given
The note with it: binding to the AhR; acts as an agonist; read-out: apparent Kd; cited from earlier work.
Turning to `Nc1ccccc1C(=O)CC(N)C(=O)O` (centres unmarked) [Kynurenine], the pKd is roughly 5.40.
